Where only a bound is given, the exact number is not on record here.

Data on six compounds can be found in patent US8748415B2 (priority 2011, dated 2014).

The test system of the assay is recombinant NL4-3 virus (Renilla luciferase in nef, Gag P373S). The assay is described as follows: HIV cell culture assay (luciferase activity in MT-2 cells infected with NLRluc recombinant virus). In kind it is cell-based. To be noted: NL43, MT-2 cells infected 4-5 days with NLRluc recombinant virus. How it is done: HIV cell culture assay—MT-2 cells and 293T cells were obtained from the NIH AIDS Research and Reference Reagent Program. MT-2 cells were propagated in RPMI 1640 media supplemented with 10% heat inactivated fetal bovine serum, […]. The 293T cells were propagated in DMEM media supplemented with 10% heat inactivated fetal bovine serum (FBS), 100 units/ml penicillin G and 100 μg/ml streptomycin. The proviral DNA clone of NL4-3 was obtained from the NIH AIDS Research and Reference Reagent Program. A recombinant NL4-3 virus, in which a section of the nef gene from NL4-3 was replaced with the Renilla luciferase gene, was used as a reference virus. In addition, residue Gag P373 was converted to P373S. Briefly, the recombinant virus was prepared by transfection of the altered proviral clone of NL4-3. Transfections were performed in 293T cells using LipofectAMINE PLUS from Invitrogen (Carlsbad, Calif.), according to manufacturer's instruction. The virus was titered in MT-2 cells using luciferase enzyme activity as a marker. Luciferase was quantitated using the Dual Luciferase kit from Promega (Madison, Wis.), with modifications to the manufacturer's protocol. The diluted Passive Lysis solution was pre-mixed with the re-suspended Luciferase Assay Reagent and the re-suspended Stop & Glo Substrate (2:1:1 ratio). Fifty (50) μL of the mixture was added to each aspirated well on assay plates and luciferase activity was measured immediately on a Wallac TriLux (Perkin-Elmer). Antiviral activities of inhibitors toward the recombinant virus were quantified by measuring luciferase activity in cells infected for 4-5 days with NLRluc recombinants in the presence serial dilutions of the inhibitor. Table 1 is the key for the data in Table 2.

On to `C=C(C)[C@@H]1CC[C@]2(CNCC(O)CN3CCCC3=O)CC[C@]3(C)[C@H](CC[C@@H]4[C@@]5(C)CC=C(c6ccc(C(=O)O)cc6)C(C)(C)[C@@H]5CC[C@]43C)[C@@H]12` (stereo partly drawn) [Example 81, 4-((1R,3aS,5aR,5bR,7aR,11aS,11bR,13aR,13bR)-3a-((2-hydroxy-3-(2-oxopyrrolidin-1-yl)propylamino)methyl)-5a,5b,8,8,11a-pentamethyl-1-(prop-1-en-2-yl)-2,3,3a,4,5,5a,5b,6,7,7a,8,11,11a,11b,12,13,13a,13b-octadecahydro-1H-cyclopenta[a]chrysen-9-yl)benzoic acid], for which the EC50 (class symbol) is below 100 nM.

Regarding `C=C(C)[C@@H]1CC[C@]2(CNC(=O)Nc3ccc(C(=O)OC)cc3)CC[C@]3(C)[C@H](CC[C@@H]4[C@@]5(C)CC=C(c6ccc(C(=O)O)cc6)C(C)(C)[C@@H]5CC[C@]43C)[C@@H]12` [Example 160, 4-((1R,3aS,5aR,5bR,7aR,11aS,11bR,13aR,13bR)-3a-((3-(4-(methoxycarbonyl)phenyl)ureido)methyl)-5a,5b,8,8,11a-pentamethyl-1-(prop-1-en-2-yl)-2,3,3a,4,5,5a,5b,6,7,7a,8,11,11a,11b,12,13,13a,13b-octadecahydro-1H-cyclopenta[a]chrysen-9-yl)benzoic acid], the 50% effective concentration (EC50) (numeric value) worked out at 260 nM.

Turning to `C=C(C)[C@@H]1CC[C@]2(CNCC3CCCN3CC)CC[C@]3(C)[C@H](CC[C@@H]4[C@@]5(C)CC=C(c6ccc(C(=O)O)cc6)C(C)(C)[C@@H]5CC[C@]43C)[C@@H]12` (single isomer, unassigned) [Example 3], under “numeric value”, the EC50 amounted to 30 nM.

Regarding `C=C(C)[C@@H]1CC[C@]2(CNCCC(=O)N3CCC(F)(F)CC3)CC[C@]3(C)[C@H](CC[C@@H]4[C@@]5(C)CC=C(c6ccc(C(=O)O)cc6)C(C)(C)[C@@H]5CC[C@]43C)[C@@H]12` [Example 117, 4-((1R,3aS,5aR,5bR,7aR,11aS,11bR,13aR,13bR)-3a-((3-(4,4-difluoropiperidin-1-yl)-3-oxopropylamino)methyl)-5a,5b,8,8,11a-pentamethyl-1-(prop-1-en-2-yl)-2,3,3a,4,5,5a,5b,6,7,7a,8,11,11a,11b,12,13,13a,13b-octadecahydro-1H-cyclopenta[a]chrysen-9-yl)benzoic acid], the EC50 (class symbol) is below 100 nM.

Take `C=C(C)[C@@H]1CC[C@]2(CNCCCN3CCOCC3)CC[C@]3(C)[C@H](CC[C@@H]4[C@@]5(C)CC=C(c6ccc(C(=O)O)cc6)C(C)(C)[C@@H]5CC[C@]43C)[C@@H]12` [Example 2, 4-((1R,3aS,5aR,5bR,7aR,11aS,11bR,13aR,13bR)-5a,5b,8,8,11a-pentamethyl-3a-((3-morpholinopropylamino)methyl)-1-(prop-1-en-2-yl)-2,3,3a,4,5,5a,5b,6,7,7a,8,11,11a,11b,12,13,13a,13b-octadecahydro-1H-cyclopenta[a]chrysen-9-yl)benzoic acid]: the EC50 (class symbol) is below 100 nM.

For the compound `C=C(C)[C@@H]1CC[C@]2(CNC(CC(=O)O)C(=O)N3CCC(F)(F)C3)CC[C@]3(C)[C@H](CC[C@@H]4[C@@]5(C)CC=C(c6ccc(C(=O)O)cc6)C(C)(C)[C@@H]5CC[C@]43C)[C@@H]12` (stereo partly drawn) [Example 131, 4-((1R,3aS,5aR,5bR,7aR,11aS,11bR,13aR,13bR)-3a-((3-carboxy-1-(3,3-difluoropyrrolidin-1-yl)-1-oxopropan-2-ylamino)methyl)-5a,5b,8,8,11a-pentamethyl-1-(prop-1-en-2-yl)-2,3,3a,4,5,5a,5b,6,7,7a,8,11,11a,11b,12,13,13a,13b-octadecahydro-1H-cyclopenta[a]chrysen-9-yl)benzoic acid], the EC50 (class symbol) is below 100 nM.

For orientation: EC50 means the concentration that produces a half-maximal response.
